Assay results from patent US9161894B2, “Use of N-(4-methoxyphenyl)-1-phenyl-1H-pyrazol-3-amine and related compounds” (NPHARMAKON, LLC, priority 2011, dated 2015).
Values joined by “and” are separate entries in the source; they are usually repeats but may differ in a detail not shown here. Equal values may be shown once. Read-outs that look alike come from different tables or passages of the source.

Experiments:
Kit (human) = target: T1, Kit (human) (Homo sapiens, UniProt P10721); experiment: Millipore KinaseProfiler radiometric-based filtration binding assay of Kit kinase; conditions: biochemical assay, read-out: IC50 of Kit kinase inhibition (converted)
T1 construct: purchased EMD Millipore Corporation (KinaseProfiler service)
T1 sequence (P10721 26-976): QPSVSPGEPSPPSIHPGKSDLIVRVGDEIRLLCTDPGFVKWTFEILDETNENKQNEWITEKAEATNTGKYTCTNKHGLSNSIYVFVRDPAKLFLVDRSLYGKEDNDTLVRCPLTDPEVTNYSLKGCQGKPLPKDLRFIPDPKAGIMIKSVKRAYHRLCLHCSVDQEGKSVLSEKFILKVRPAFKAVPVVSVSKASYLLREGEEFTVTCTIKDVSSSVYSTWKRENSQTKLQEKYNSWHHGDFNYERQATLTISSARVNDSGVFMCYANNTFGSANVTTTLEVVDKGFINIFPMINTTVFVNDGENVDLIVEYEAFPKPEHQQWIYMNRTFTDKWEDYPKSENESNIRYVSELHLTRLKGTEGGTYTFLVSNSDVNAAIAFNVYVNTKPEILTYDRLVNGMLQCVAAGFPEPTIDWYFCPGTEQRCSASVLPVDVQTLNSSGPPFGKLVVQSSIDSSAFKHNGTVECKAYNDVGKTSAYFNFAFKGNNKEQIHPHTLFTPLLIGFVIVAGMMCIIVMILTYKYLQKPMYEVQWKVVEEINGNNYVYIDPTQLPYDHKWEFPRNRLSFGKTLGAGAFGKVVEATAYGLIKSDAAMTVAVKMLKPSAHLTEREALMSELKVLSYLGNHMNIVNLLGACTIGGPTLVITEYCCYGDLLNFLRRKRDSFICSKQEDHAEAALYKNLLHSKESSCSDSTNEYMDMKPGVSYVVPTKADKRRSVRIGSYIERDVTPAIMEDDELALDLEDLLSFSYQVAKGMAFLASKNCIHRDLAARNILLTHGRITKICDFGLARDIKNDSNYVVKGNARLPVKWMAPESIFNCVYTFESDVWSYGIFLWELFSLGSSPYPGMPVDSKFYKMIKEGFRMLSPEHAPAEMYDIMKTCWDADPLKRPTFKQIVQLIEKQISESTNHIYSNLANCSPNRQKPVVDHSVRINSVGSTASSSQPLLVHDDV
Method: To characterize the inhibitory activity of FPL-62064 against Kit kinase, the drug was tested using Millipore KinaseProfiler radiometric-based filtration binding assay (EMD Millipore Corporation, Billerica, Mass.). In a final reaction volume of 25 μL, Kit (human) (5-10 mU) was incubated with 8 mM MOPS pH 7.0, 0.2 mM EDTA, 10 mM MnCl2, 0.1 mg/mL poly(Glu, Tyr) 4:1, 10 mM MgAcetate and 10 μM [γ^33P-ATP] (specific activity approx. 500 cpm/pmol). The reaction was initiated by the addition of the MgATP mix. After incubation for 40 minutes at room temperature, the reaction was stopped by the addition of 5 μL of a 3% phosphoric acid solution. 10 μL of the reaction was then spotted onto a Filtermat A and washed three times for 5 minutes in 75 mM phosphoric acid and once in methanol prior to drying and scintillation counting.

[1] = target: T2, Kit autophosphorylation in M07e cells (Homo sapiens, UniProt P10721); experiment: Cellular Kit phosphorylation assay (ProQinase sandwich ELISA) in M07e cells; format: cell-based
T2 construct: expressing endogenously a high level of wild-type Kit; host or cells: M07e (human acute megakaryoblastic leukemia)
T2 sequence (P10721 26-976): as above
T2 sequence (P21583 26-190 partner limits assumed): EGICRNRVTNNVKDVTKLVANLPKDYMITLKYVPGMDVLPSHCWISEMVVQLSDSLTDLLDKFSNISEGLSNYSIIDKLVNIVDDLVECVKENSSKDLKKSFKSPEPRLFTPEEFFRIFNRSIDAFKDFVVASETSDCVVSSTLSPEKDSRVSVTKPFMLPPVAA
Method: The human acute megakaryoblastic leukemia cell line M07e expressing endogenously a high level of wild-type Kit was used in the cellular Kit phosphorylation assay. Stimulation of these cells with human Kit ligand results in receptor tyrosine autophosphorylation. M07e cells were plated in RPMI supplemented with 20% FCS and 10 ng/ml GM-CSF in multiwell cell culture plates. After serum- and growth factor-starvation overnight, cells were incubated with test compounds in serum-free medium. Pre-diluted test samples were added 1:100 to the cell culture medium resulting in a final DMSO concentration of 1%. After 90 minute incubation at 37° C., cells were stimulated with 100 ng/ml Kit ligand for 3 minutes. Cells treated with staurosporine were defined as Low control, and cells treated with solvent alone were defined as High control. Test sample-treated cells, as well as High and Low control, were stimulated in identical manner. Quantification of substrate phosphorylation was assessed in 96 well plates via sandwich ELISA using a substrate specific capture antibody and an anti-phosphotyrosine detection antibody. Raw data were converted into percent substrate phosphorylation relative to High control, set to 100%. […] The equation is a four-parameter logistic equation.

[2] = system: darker human skin (pigmentation); experiment: Single-blind pilot clinical study of skin lightening on darker human skin; format: in vivo; conditions: day 29 / end of study, significance at p<0.05
Method: The study protocol and informed consent form were reviewed and approved by the Guangzhou Institutional Review Board (Guangzhou, China) prior to the initiation of the study. […]
The following test formulations were prepared and pH of each formulation was measured, as shown below. […]
Lower back of each subject was used as the test area. Five identically sized application sites (square 3 cm by 3 cm) were marked on the skin of each subject and labeled A through E. 0.1 gram of each material, as measured by extrusion from a syringe, was applied on the appropriate site, using a gloved finger, by a trained technician, guided by markings on the skin and the application site diagram. […]
L value (brightness) reading was taken in duplicate with the spectrophotometer CM-2600d (Konica Minolta, Osaka, Japan). The melanin (M) index reading was taken in duplicate with a Mexameter® MX18 (Courage & Khazaka, Cologne, Germany). […]
Statistical analysis was performed using the computer program SigmaStat 11 (Systat Software Inc., Chicago, Ill., USA) on a Microsoft Windows computer. For all data (Visual Scoring (VS), L value (brightness) (L), and MeIanin Index (M)), the baseline readings were subtracted prior to analysis. […]

human skin = experiment: Safety and adverse events at application sites in the pilot clinical study; format: in vivo; conditions: topical twice daily, any time point during the study
Method: Lower back of each subject was used as the test area. Five identically sized application sites (square 3 cm by 3 cm) were marked on the skin of each subject and labeled A through E. 0.1 gram of each material, as measured by extrusion from a syringe, was applied on the appropriate site, using a gloved finger, by a trained technician, guided by markings on the skin and the application site diagram. The application was carried out in an accredited outpatient facility twice daily (morning and afternoon/evening), 6 days per week (with no treatments on Sunday). The procedure was continued in the same manner for the duration of the study. Subjects 2, 3 and 4 entered the study on day 1 (Friday) and each received 48 treatments (no subject missed any of the treatments). Subjects 8, 9, and 10 entered the study on day 4 (Monday) and each received 44 treatments. No subject missed any of the treatments.
In all cases, the condition of the sites treated with Formulation E improved upon termination of the treatment.

5-lipoxygenase (5-LO) = target: T3, 5-lipoxygenase (5-LO) (Homo sapiens, UniProt P09917); conditions: in vitro assays; cited from earlier work
T3 sequence (P09917 1-674): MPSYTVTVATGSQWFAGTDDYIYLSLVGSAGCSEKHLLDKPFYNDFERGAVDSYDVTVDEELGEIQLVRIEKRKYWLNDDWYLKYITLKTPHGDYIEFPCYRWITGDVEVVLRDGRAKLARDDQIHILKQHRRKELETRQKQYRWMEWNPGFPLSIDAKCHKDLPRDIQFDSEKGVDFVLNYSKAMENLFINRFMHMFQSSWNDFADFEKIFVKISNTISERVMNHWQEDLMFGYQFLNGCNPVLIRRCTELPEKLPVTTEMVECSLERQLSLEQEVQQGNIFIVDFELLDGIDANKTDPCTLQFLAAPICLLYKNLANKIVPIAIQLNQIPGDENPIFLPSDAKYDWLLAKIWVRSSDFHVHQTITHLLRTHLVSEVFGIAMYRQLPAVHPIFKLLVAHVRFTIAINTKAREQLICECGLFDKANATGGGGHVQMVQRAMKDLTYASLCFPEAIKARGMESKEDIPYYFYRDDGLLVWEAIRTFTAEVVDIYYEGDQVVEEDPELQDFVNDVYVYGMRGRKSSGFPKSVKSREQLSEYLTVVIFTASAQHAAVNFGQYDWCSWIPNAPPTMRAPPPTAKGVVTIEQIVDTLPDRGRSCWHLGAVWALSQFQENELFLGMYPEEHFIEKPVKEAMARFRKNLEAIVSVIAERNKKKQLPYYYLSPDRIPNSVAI

[3] = target: prostaglandin synthetase (PGS); conditions: in vitro assays; cited from earlier work
[4] = target: T4, 5-LO in intact RBL-1 cells (Rattus norvegicus, UniProt P12527); conditions: cited from earlier work
T4 construct: endogenous in cells; host or cells: RBL-1 cells
T4 sequence (P12527 1-673): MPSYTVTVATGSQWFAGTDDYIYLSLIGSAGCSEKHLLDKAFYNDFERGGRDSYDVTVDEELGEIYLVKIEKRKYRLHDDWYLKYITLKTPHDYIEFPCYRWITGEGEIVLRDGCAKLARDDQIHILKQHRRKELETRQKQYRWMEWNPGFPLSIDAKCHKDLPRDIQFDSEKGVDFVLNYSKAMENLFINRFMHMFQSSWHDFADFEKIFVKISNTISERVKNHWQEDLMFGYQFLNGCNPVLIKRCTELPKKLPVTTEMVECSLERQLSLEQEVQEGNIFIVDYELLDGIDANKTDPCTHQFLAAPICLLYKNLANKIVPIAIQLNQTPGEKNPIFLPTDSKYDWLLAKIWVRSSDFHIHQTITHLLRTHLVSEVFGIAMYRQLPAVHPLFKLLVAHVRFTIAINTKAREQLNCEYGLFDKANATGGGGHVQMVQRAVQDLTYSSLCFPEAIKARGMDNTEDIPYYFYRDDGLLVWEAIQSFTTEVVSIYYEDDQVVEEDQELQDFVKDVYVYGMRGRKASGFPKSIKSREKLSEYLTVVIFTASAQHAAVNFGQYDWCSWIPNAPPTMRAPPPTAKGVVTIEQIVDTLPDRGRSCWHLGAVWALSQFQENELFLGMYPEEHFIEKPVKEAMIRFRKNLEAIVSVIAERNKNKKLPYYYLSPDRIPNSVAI

[5] = system: PGS in intact RBL-1 cells; conditions: cited from earlier work
[6] = system: UV irradiation-induced erythema; conditions: guinea pig; cited from earlier work
[7] = system: arachidonic acid-induced ear edema; conditions: mouse ear; cited from earlier work
rabbit skin edema = conditions: co-injected with arachidonic acid; cited from earlier work
[8] = system: immune-complex-induced peritoneal inflammation; conditions: mouse, intraperitoneal, fine suspension in saline; cited from earlier work
carrageenin foot edema = conditions: rats, oral route, doses up to 200 mg/kg; cited from earlier work
[9] = cited from earlier work
[10] = humans, preliminary data; cited from earlier work

- IC50 (Kit (human); 10 μM ATP): 6.9 µM and 6.89 µM
- IC50 (Kit (human); same value in mass units): 7.54 µM
- IC50 ([1]; 90 min incubation, 100 ng/ml Kit ligand): 1.2 µM
- IC50 ([1]; same value in mass units): 1.13 µM
Structure (SMILES): COc1ccc(Nc2ccn(-c3ccccc3)n2)cc1 [FPL-62064, N-(4-methoxyphenyl)-1-phenyl-1H-pyrazol-3-amine]
- change of the melanin index (M) from baseline compared to the control site (Formulation D, vehicle) [2]: statistically significant decrease
- adverse events, sensitivity or irritation at treated sites (human skin): well tolerated
- IC50 (5-lipoxygenase (5-LO)): 3.5 to 11.5 µM
- IC50 [3]: 3.1 µM
- IC50 [4]: 31 µM
- IC50 [5]: 3.6 µM
- UV irradiation-induced erythema and prostaglandin E2 formation [6]: inhibited
- edema formation and eicosanoid production induced by arachidonic acid [7]: inhibited
- edema and eicosanoid formation (rabbit skin edema): inhibited
- activity against immune-complex-induced peritoneal inflammation [8]: demonstrated local activity
- activity against carrageenin foot edema (carrageenin foot edema): inactive
- topical bioavailability ([9]; topical): topically bioavailable
- metabolism ([9]; upon intravenous administration): rapidly and extensively metabolized
- safety and tolerability of topical application [10]: safe and well tolerated
